Data on three molecules can be found in patent US9073961B2, “Substitution derivatives of N6 -benzyladenosine-5′-monophosphate, methods of preparation thereof, use thereof as medicaments, and therapeutic preparations containing these compounds” (UNIVERZITA PALACKEHO V OLOMOUCI, priority 2010, dated 2015).

Molecules are shown by their SMILES.

The subject of test [1] is HOS (human osteogenic sarcoma). As to the kind of experiment: Calcein AM cytotoxicity assay, HOS. The test is classed as cell-based. Particulars: 72 hours incubation. In outline:
(§1)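 24 h preincubation, 37 °C/5% CO2; cpd added at t0, six 3-fold dilns, max 166.7 μM, triplicate; 72 h exposure; Calcein AM 1 μg/ml final, 1 h; fluorescence read. GI50 from dose-response (50% drop in esterase activity).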

Test [2] relates to K-562 (human erythroleukemia). As to the kind of experiment: Calcein AM cytotoxicity assay, K-562. Particulars: 72 hours incubation. It counts as cell-based. The method, boiled down: as §1
The next test concerns MCF-7 (breast carcinoma). The test can be described thus: Calcein AM cytotoxicity assay, MCF7. It counts as cell-based. Particulars: 72 hours incubation. In outline:
as §1

The test system of test [3] is Normal human fibroblasts BJ. As to the kind of experiment: Calcein AM cytotoxicity assay, BJ. Particulars: 72 hours incubation. The test is classed as cell-based. In outline: as §1
The test system of test [4] is G-361 (human malignant melanoma). The test can be described thus: Calcein AM cytotoxicity assay, G-361. It counts as cell-based. Conditions: 72 hours incubation. An excerpt:
Because toxic compounds negatively influence metabolic processes in cells, many standard cytotoxicity assays are based on measurement of metabolisation rate of various artificial substrates. Resulting product is then quantified e.g. by means of spectrometry. The assays can be easily modified for use in 96-well plates. For evaluation of cytotoxic effect of the novel substituted 9-substituted cytokinin derivatives of this invention, a microtiter assay based on quantification of metabolisation of Calcein AM was used. The assay is widely used in drug screening programs and in chemosensitivity testing. In the living cells, Calcein AM is enzymatically hydrolysed and accumulation of resulting calcein is manifested by green fluorescence.
In the routine screening the following cell lines have been used: CEM (T-lymphoblastoid leukemia), HL-60 (promyelocytic leukemia), K-562 (human erythroleukemia), MCF-7 (breast carcinoma), HOS (human osteogenic sarcoma), and G-361 (human malignant melanoma). Normal human fibroblasts BJ were used as a control for routine screening of the compounds. The cells were kept in Nunc/Corning 80 cm^2 plastic bottles and grown in cell culture medium (DMEM containing 5 g/l glucose, 2 mM glutamine, 100 U/ml penicilline, 100 μg/ml streptomycine, 10% fetal bovine serum and sodium hydrogencarbonate), the compounds were prepared according to the procedure of the present invention.
The cell suspensions were prepared and diluted according to the particular cell type and the expected target cell density (2.500-30.000 cells per well based on cell growth characteristics) and pippetted (80 μl) into 96-well plates. Inoculates were allowed a pre-incubation period of 24 hours at 37° C. and 5% CO2 for stabilisation. Tested compound was added in total volume of 20 μl of water at time zero. Usually, test compound was evaluated at six 3-fold dilutions. In routine testing, the highest concentration tested was 166.7 μM. All drug concentrations were tested in triplicates. Incubations of cells with the test compounds lasted for 72 hours at 37° C., in 5% CO2 atmosphere and 100% humidity. At the end of incubation period Calcein AM in PBS was added into final concentration of 1 μg/ml. After another 1 hour of incubation fluorescence (FD) was measured with the Labsystem FIA Reader Fluoroscan Ascent (Microsystems). Tumor cell survival (TCS) was estimated using the following equation: […]=(FDdrug exposed well/FDcontrol well)×100%. The GI50 value, the drug concentration causing 50% reduction of esterase activity, was calculated from the obtained dose response curves (FIG. 1).
Cytoxicity of novel compounds was tested on panel of cell lines of different histogenetic and species origin (Table 3). […] The effective novel derivatives killed tumour cells in concentrations close to 0.1-50 μM.

The test system of test [5] is CEM (T-lymphoblastoid leukemia). The test can be described thus: Calcein AM cytotoxicity assay, CEM. It counts as cell-based. Particulars: 72 hours incubation, Calcein AM. In outline: as §1
For test [6], the system named is HL-60 (promyelocytic leukemia). The test can be described thus: Calcein AM cytotoxicity assay, HL60. The test is classed as cell-based, human. Particulars: 72 hours incubation. In outline: as §1
Another test relates to Human lymphocytes. The test can be described thus: Immunosuppressive activity, 3H-thymidine incorporation in concanavalin A activated lymphocytes. The test is classed as cell-based. Particulars: 72 hours, [3H]-TdR incorporation, read-out: Human lymphocytes ED50. An excerpt: One of the most important parameters of specific cellular immunity is the proliferative response of lymphocytes to antigens or polyclonal mitogens. The majority of normal mammalian peripheral lymphocytes comprise resting cells. Antigens or nonspecific polyclonal mitogens have the capacity to activate lymphoid cells and this is accompanied by dramatic changes of intracellular metabolism (mitochondrial activity, protein synthesis, nucleic acids synthesis, formation of blastic cells and cellular proliferation). […] Variety of in vitro assays was developed to measure proliferative response of lymphocytes. The most commonly used is ^3H-thymidine incorporation method.
During cell proliferation, DNA has to be replicated before the cell is divided into two daughter cells. This close association between cell doublings and DNA synthesis is very attractive for assessing cell proliferation. If labelled DNA precursors are added to the cell culture, cells that are about to divide incorporate the labelled nucleotide into their DNA. Traditionally, those assays usually involve the use of radiolabelled nucleosides, particularly tritiated thymidine ([^3H]-TdR). The amount of [^3H]-TdR incorporated into the cellular DNA is quantified by liquid scintillation counting.
Human heparinized peripheral blood was obtained from healthy volunteers by cubital vein punction. The blood was diluted in PBS (1:3) and mononuclear cells were separated by centrifugation in Ficoll-Hypaque density gradient (Pharmacia, 1.077 g/ml) at 2200 rpm for 30 minutes. Following centrifugation, lymphocytes were washed in PBS and resuspended in cell culture medium (RMPI 1640, 2 mM glutamine, 100 U/ml penicillin, 100 μg/ml streptomycin, 10% fetal calf serum and sodium bicarbonate).
The cells were diluted at target density of 1.100.000 cells/ml and were added by pipette (180 μl) into 96-well microtiter plates. Four-fold dilutions of the intended test concentration were added at time zero in 20 μl aliquots to the microtiter plate wells. Usually, test compound was evaluated at six 4-fold dilutions. In routine testing, the highest well concentration was 266.7 μM. All drug concentrations were examined in duplicates. All wells with exception of unstimulated controls were activated with 50 μl of concanavalin A (25 μg/ml). Incubations of cells with test compounds lasted for 72 hours at 37° C., in 5% CO2 atmosphere and 100% humidity. At the end of incubation period, the cells were assayed by using the [^3H]-TdR:
Cell cultures were incubated with 0.5 μCi (20 μl of stock solution 500 μCi/ml) per well for 6 hours at 37° C. and 5% CO2. The automated cell harvester was used to lyse cells in water and adsorb the DNA onto glass-fiber filters in the format of microtiter plate. The DNA incorporated [^3H]-TdR was retained on the filter while unincorporated material passes through. The filters were dried at room temperature overnight, sealed into a sample bag with 10-12 ml of scintillant. The amount of [^3H]-TdR present in each filter (in cpm) was determined by scintillation counting in a Betaplate liquid scintillation counter. The effective dose of immunosuppressant (ED) was calculated using the following equation: ED=(CCPMdrug exposed well/mean CCPMcontrol wells)×100%. The ED50 value, the drug concentration inhibiting proliferation of 50% of lymphocytes, was calculated from the obtained dose response curves.
To evaluate immunosuppressive activity of substituted adenines, their ability to inhibit polyclonal mitogen induced proliferation of normal human lymphocytes was analyzed (Table 4). […] Effective immunosuppressive dose of new derivatives under in vitro conditions was close to 10-40 μM.
For orientation: Dividing cells build labelled thymidine or BrdU into new DNA.

The subject of test [7] is cytokinin-dependent tobacco callus Nicotiana tabacum L. cv. Wisconsin 38. As to the kind of experiment: Growth of cytokinin-dependent tobacco callus. The test is classed as cell-based.
A further test relates to p21^WAF-1. The test can be described thus: Induction of p21WAF-1 expression in MCF-7 cells (immunoblot). The test is classed as cell-based. On the procedure: MCF-7 cells cultured at 37° C. in 5% CO2 atmosphere in DMEM medium supplemented with 10% foetal calf serum were treated with compound 28 concentration ranges of 0-100 μM. Compound 28 was added into the medium from the 100 mM stock solution in DMSO. Cells were harvested 12 hours after incubation with compound 28, centrifuged (1000 rpm, 4° C., 5 min), washed twice by ice-cold PBS and re-centrifuged. These washed cells were then lysed by 1×CSB (loading buffer for SDS-PAGE, i.e. electrophoresis of proteins in polyacrylamide gel containing SDS). Cell lysate proteins were separated by SDS-PAGE and transferred onto a nitrocelulose (NC) membrane. NC membrane was blocked by 5% skimmed milk, 0.1% Tween 20 in PBS. Protein level of p21^WAF-1 and actin (as a loaded protein volume control) were detected immunochemically using commercially available specific monoclonal antibodies anti-p21^WAF-1 (Ab-1, Calbiochem) and anti-Actin (Clone AC-40, Sigma-Aldrich). The primary antibodies bind to target proteins were detected using rabbit secondary peroxidase-labeled antibody (RAM-Px, DAKO), followed by chemiluminiscence (ECL, Amersham-Pharmacia).
MCF-7 cells were incubated in the presence of 1 μmol of compound 28. In various time intervals from the moment of administration of 28 the cells were harvested and lyzed. […]

By GI50 is commonly meant the concentration at which growth is held to half of that of the control. Regarding `O=P(O)(O)OC[C@H]1O[C@@H](n2cnc3c(NCc4cccc(F)c4)ncnc32)[C@H](O)[C@@H]1O` [Compound 2, 6-(3-fluorobenzylamino)purine riboside-5′-monophosphate], the GI50 in test [1] is > 167 µM; in test [2], 7 µM; in the test with MCF-7 (breast carcinoma), 16.6 µM; in test [3], > 167 µM; in test [4], 15.7 µM; in [5] it was 4 µM. In addition, the GI50 in test [6] was 0.92 µM. In addition, in the test with Human lymphocytes, the EC50 stood at 11.5 µM. The “Activity (%) [10^−5 mol · l^−1 KR = 100%]” value in test [7] (at concentration with highest activity, relative to control cytokinin) is listed as 103 ± 6%. The “Concentration with highest activity” value in test [7] (tobacco callus fresh weight after four weeks) was 10^−5 mol · l^−1.

For the molecule `O=P(O)(O)OC[C@H]1O[C@@H](n2cnc3c(NCc4cccc(O)c4)ncnc32)[C@H](O)[C@@H]1O` [Compound 22, 6-(3-hydroxybenzylamino)purine riboside-5′-monophosphate], the 50% growth inhibitory concentration (GI50) in test [1] was > 167 µM; in test [2], > 167 µM; in the test on MCF-7 (breast carcinoma), > 167 µM; in test [3], > 167 µM; in [4], > 167 µM; in test [5], 51.9 µM. Further, in test [6], the GI50 was 23.7 µM. Moreover, in the test on Human lymphocytes, the EC50 was determined as 12.8 µM.

Consider `COc1cccc(CNc2ncnc3c2ncn3[C@@H]2O[C@H](COP(=O)(O)O)[C@@H](O)[C@H]2O)c1O` [Compound 28, 6-(2-hydroxy-3-methoxybenzylamino)purine riboside-5′-monophosphate], for which the GI50 in [1] is 24.1 µM; in test [2] it was 2.1 µM; in the test with MCF-7 (breast carcinoma), 30.4 µM; in test [3] it was 69.7 µM; in test [4], 27.9 µM; in test [5] it was 0.3 µM. Besides, the GI50 in test [6] was 0.5 µM. In the test on Human lymphocytes, the EC50 was 1.2 µM. Besides, the “time of effective induction of p21^WAF-1 after addition” value with p21^WAF-1 (1 μmol concentration) was in the range of 6 to 24 h. Also, the “p21^WAF-1 protein induction in relation to concentration” value with p21^WAF-1 (12 hours, 0-100 μM tested, effective in range of units imol per liter) is on record as “efficient p21^WAF-1 protein induction is achieved”.
